Assay results taken from publication PMC4174574 (Molecular cancer therapeutics, 2013).
Values belong to the molecule of their own block, whether it stands above or below them.

How the values were obtained:
BxPC-3 cells [1] = experiment: Induction of apoptosis; conditions: BxPC-3 transfected with control siRNA, 3.5 μM, 72 h
A1/Bfl-1 = target: T1, A1/Bfl-1 (Homo sapiens, UniProt Q16548); experiment: FP-based competitive binding assay using fluorescent labeled Bid BH3 peptide; conditions: for Ki: read-out: Ki ± SD, A1/Bfl-1, competitive FP assay, Bid BH3 peptide
T1 sequence (Q16548 1-175): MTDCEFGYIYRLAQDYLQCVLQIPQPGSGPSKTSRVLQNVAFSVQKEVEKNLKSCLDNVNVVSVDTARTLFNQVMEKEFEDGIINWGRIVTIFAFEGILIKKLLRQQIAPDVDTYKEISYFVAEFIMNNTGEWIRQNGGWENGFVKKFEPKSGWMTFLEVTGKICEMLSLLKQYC

Bcl-2 [2] = target: T2, Bcl-2 (Homo sapiens, UniProt P10415); experiment: as above
T2 sequence (P10415 whole entry): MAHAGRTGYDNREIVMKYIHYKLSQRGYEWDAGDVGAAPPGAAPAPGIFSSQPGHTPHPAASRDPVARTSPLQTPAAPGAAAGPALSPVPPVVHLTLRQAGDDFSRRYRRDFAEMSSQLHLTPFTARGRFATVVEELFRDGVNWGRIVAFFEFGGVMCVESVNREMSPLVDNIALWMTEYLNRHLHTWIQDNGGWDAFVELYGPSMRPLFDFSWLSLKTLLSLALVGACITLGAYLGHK

Bcl-2 [3] = target: T2, Bcl-2; conditions: solution competitive SPR, immobilized Bid peptide
AsPC-1 = conditions: read-out: IC50 cell growth inhibition, AsPC-1; 4 days treatment
AsPC-1 cells = conditions: AsPC-1, highest tested concentration 20 μM
Panc-1 cells [4] = experiment: Induction of apoptosis, Annexin V/PI double staining flow cytometry; format: cell-based, human
Panc-1 cells [5] = conditions: Panc-1, 24 h, anti-Bax 6A7
cellular Mcl-1 = cellular Mcl-1 (Homo sapiens, UniProt Q07820); experiment: Biotin-labeled Noxa BH3 peptide streptavidin pull-down from 2LMP cell lysate; format: binding
cellular Mcl-1, sequence (Q07820 whole entry): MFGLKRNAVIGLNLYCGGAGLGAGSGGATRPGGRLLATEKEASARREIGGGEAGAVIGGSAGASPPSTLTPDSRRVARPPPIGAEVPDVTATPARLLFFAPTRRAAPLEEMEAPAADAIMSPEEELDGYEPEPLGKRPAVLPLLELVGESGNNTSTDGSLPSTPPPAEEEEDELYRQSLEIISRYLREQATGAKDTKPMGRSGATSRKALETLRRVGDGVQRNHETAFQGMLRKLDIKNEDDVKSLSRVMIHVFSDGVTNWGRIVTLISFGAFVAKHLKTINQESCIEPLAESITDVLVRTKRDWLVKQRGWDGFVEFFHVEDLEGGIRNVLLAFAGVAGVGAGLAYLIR

BxPC-3 cells [6] = conditions: BxPC-3, 24 h, anti-Bax 6A7
Mcl-1 [7] = target: T3, Mcl-1 (Homo sapiens, UniProt Q07820); experiment: FP-based competitive binding assay using fluorescent labeled Bid BH3 peptide
T3 sequence (Q07820 whole entry): as above

MiaPaCa-2 = conditions: read-out: IC50 cell growth inhibition, MiaPaCa-2; 4 days treatment
[8] = target: Mcl-1/Bax and Mcl-1/Bak in BxPC-3 cells (Homo sapiens, UniProt Q07820); conditions: BxPC-3, 4 μM, 24 h
Mcl-1/Bax and Mcl-1/Bak in BxPC-3 cells, sequence (Q07820 whole entry): as above

SCID mice = conditions: mouse, in vivo
BxPC-3 xenograft = BxPC-3 xenograft efficacy in SCID mice; format: in vivo; conditions: 60 mg/kg i.v.; for Tumor growth inhibition in comparison with controls: 5 days a week for two weeks
[9] = system: Bax/Bak-deficient (DKO) MEFs; conditions: 10 μM, 24 h
[10] = Metabolic stability in pooled mice liver microsomes; format: in vitro ADME
BxPC-3 cells [11] = conditions: BxPC-3, 24 h, 3 and 10 μM, densitometry
BxPC-3 = conditions: read-out: IC50 cell growth inhibition, BxPC-3; 4 days treatment
[12] = system: wild type (WT) murine embryonic fibroblasts (MEF); conditions: 10 μM, 24 h
Mcl-1 [13] = target: T3, Mcl-1; format: binding
Bcl-w = target: T4, Bcl-w (Homo sapiens, UniProt Q92843); experiment: FP-based competitive binding assay using fluorescent labeled Bid BH3 peptide; conditions: for Ki: read-out: Ki ± SD, Bcl-w, competitive FP assay, Bid BH3 peptide
T4 sequence (Q92843 1-193): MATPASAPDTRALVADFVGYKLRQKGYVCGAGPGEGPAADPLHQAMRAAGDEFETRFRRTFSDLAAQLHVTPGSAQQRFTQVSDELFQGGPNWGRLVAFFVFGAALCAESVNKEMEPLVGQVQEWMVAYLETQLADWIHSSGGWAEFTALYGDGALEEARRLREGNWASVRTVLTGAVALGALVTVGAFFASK

Panc-1 cells [14] = conditions: Panc-1, 24 h treatment
BxPC-3 cells [15] = experiment: Cell growth inhibition; conditions: BxPC-3 transfected with control siRNA, 3.5 μM, 72 h
Bcl-xL [16] = target: T5, Bcl-xL (Homo sapiens, UniProt Q07817); conditions: solution competitive SPR, immobilized Bid peptide
T5 sequence (Q07817 whole entry): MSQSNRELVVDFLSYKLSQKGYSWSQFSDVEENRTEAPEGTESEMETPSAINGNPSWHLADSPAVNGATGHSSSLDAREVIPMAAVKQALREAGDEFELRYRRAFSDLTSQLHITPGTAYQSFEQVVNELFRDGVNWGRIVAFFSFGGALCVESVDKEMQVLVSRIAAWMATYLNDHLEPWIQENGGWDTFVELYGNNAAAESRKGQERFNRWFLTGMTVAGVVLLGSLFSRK

Panc-1 = conditions: read-out: IC50 cell growth inhibition, Panc-1; 4 days treatment
Capan-2 = conditions: read-out: IC50 cell growth inhibition, Capan-2; 4 days treatment
Bcl-xL [17] = target: T5, Bcl-xL; experiment: FP-based competitive binding assay using fluorescent labeled Bid BH3 peptide
Mcl-1 [18] = target: T3, Mcl-1; conditions: cited from earlier work

Compound: O=C(O)CSc1cc(NS(=O)(=O)c2ccc(Br)cc2)c2ccccc2c1O [UMI-77]
- Induction of apoptosis (BxPC-3 cells [1]): 7 fold
- Fold lower affinity to A1/Bfl-1 than to Mcl-1 (A1/Bfl-1; FP Ki ratio): 11 fold
- Ki (A1/Bfl-1): 5.33 ± 1 µM
- Fold reduced binding to Bcl-2 vs Mcl-1 (Bcl-2 [2]; FP Ki ratio): more than 50 fold
- Ki (Bcl-2 [2]; read-out: Ki ± SD, Bcl-2, competitive FP assay, Bid BH3 peptide): 23.8 ± 1.81 µM
- Fold decreased binding to Bcl-2 vs Mcl-1 (SPR) (Bcl-2 [3]): more than 30 fold
- IC50 (AsPC-1): 16.1 µM
- Induction of early apoptosis (AsPC-1 cells): 8%
- Early apoptotic cells (Panc-1 cells [4]; Panc-1, 5 μM, 24 hours): 15%
- Early apoptotic cells (Panc-1 cells [4]; Panc-1, 5 μM, 48 hours): 21%
- Early apoptotic cells (Panc-1 cells [4]; Panc-1, 10 μM, 24 hours): 21%
- Early apoptotic cells (Panc-1 cells [4]; Panc-1, 10 μM, 48 hours): 49%
- Concentration from which activated Bax is substantially increased (Panc-1 cells [5]): ≥ 5 µM
- Concentration from which BL-Noxa / cellular Mcl-1 interaction is blocked (cellular Mcl-1): ≥ 10 µM
- Disruption of BL-Noxa / cellular Mcl-1 interaction (cellular Mcl-1): effectively disrupt the interactions between BL-Noxa and cellular Mcl-1 in a dose dependent manner
- Concentration from which activated Bax is substantially increased (BxPC-3 cells [6]): ≥ 5 µM
- Potency for binding to Mcl-1 relative to 1 (UMI-59) (Mcl-1 [7]; FP Ki ratio): three times higher potency
- Ki (Mcl-1 [7]; read-out: Ki ± SD, Mcl-1, competitive FP assay, Bid BH3 peptide): 0.49 ± 0.06 µM
- IC50 (MiaPaCa-2): 12.5 µM
- Endogenous protein-protein interactions of Bax and Bak with Mcl-1 [8]: inhibition of the endogenous protein-protein interactions of Bax and Bak with Mcl-1
- Histopathology (H&E) of kidney, liver and pancreas (SCID mice): did not cause damage
- Positive apoptotic cells of tumor sections (TUNEL) vs control group (BxPC-3 xenograft): significantly increased
- Survivin in tumor tissue lysates (western blot) (BxPC-3 xenograft): significant decrease of survivin
- Tumor growth inhibition in comparison with controls (BxPC-3 xenograft; day 19 (p < 0.0001)): 65%
- Tumor growth inhibition in comparison with controls (BxPC-3 xenograft; day 22 (p < 0.003)): 56%
- Apoptotic cells in MEF DKO cells [9]: 16%
- Microsomal half-life (T1/2) [10]: 45 min
- Cleaved caspase-3 versus DMSO control (BxPC-3 cells [11]): statistically significant cleaved caspase-3 versus DMSO control
- IC50 (BxPC-3): 3.4 µM
- Apoptosis in MEF WT cells [12]: more than 60%
- Fold improved binding affinity to Mcl-1 in comparison with UMI-59 (SPR) (Mcl-1 [13]; SPR IC50 ratio): 4 fold
- IC50 (Mcl-1 [13]; read-out: IC50, Mcl-1 (SPR), solution competitive SPR, immobilized Bid peptide): 0.31 µM
- Fold decreased binding to Bcl-w vs Mcl-1 (Bcl-w; FP Ki ratio): 17 fold
- Ki (Bcl-w): 8.19 ± 1.91 µM
- Concentration from which cytochrome c and Smac are released from mitochondria (Panc-1 cells [14]): ≥ 10 µM
- Cell growth inhibition (BxPC-3 cells [15]): 50%
- Fold decreased binding to Bcl-xL vs Mcl-1 (SPR) (Bcl-xL [16]): more than 30 fold
- IC50 (Panc-1): 4.4 µM
- IC50 (Capan-2): 5.5 µM
- Fold reduced binding to Bcl-xL vs Mcl-1 (Bcl-xL [17]; FP Ki ratio): more than 50 fold
- Ki (Bcl-xL [17]; read-out: Ki ± SD, Bcl-xL, competitive FP assay, Bid BH3 peptide): 33 ± 4.33 µM

Compound: CN(C)CC[C@H](CSc1ccccc1)Nc1ccc(S(=O)(=O)NC(=O)c2ccc(N3CCN(Cc4ccccc4-c4ccc(Cl)cc4)CC3)cc2)cc1[N+](=O)[O-] [ABT-737]
- Binding to Mcl-1 (Mcl-1 [18]): fails to bind

- Ki (A1/Bfl-1): 6.14 ± 1 µM
- Ki (Bcl-w): 37.5 ± 7.96 µM
Compound: O=C(O)CSc1cc(NS(=O)(=O)c2cccs2)c2ccccc2c1O [UMI-59]
- Disruption of BL-Noxa / cellular Mcl-1 interaction (cellular Mcl-1): effectively disrupt the interactions between BL-Noxa and cellular Mcl-1 in a dose dependent manner
